Our source for the ED50 and LD50 values is patent publication US5036091A, “3-Aryloxazolidinone derivatives, process for their preparation and their use in therapy” (Delalande S.A., priority 1989, dated 1991).

Molecules are shown by their SMILES.

In one series the test system is 5-HTP potentialisation. Description: 5-HTP potentialisation assay in rat (antidepressive activity). The series is classed as in vivo. The note with it: po, compound given orally, 5-HTP intra-peritoneal 1 h after the first treatment, read-out: ED50 (dose which brings about in 50% of the animals generalized shakings or stereotypies consecutive to 5-HTP). On the procedure: Int. Pharmacodyn. (1982), 259, 194-221. The dose of product which, when given orally, brings about in 50% of the animals (ED50) the appearance of generalized shakings or of stereotypies (trinklings, shakes of head) consecutive to the administration by intra-peritoneal route 1 h after the first treatment of 5-hydroxy-tryptophane (5-HTP) is determined in rat.
Usually ED50 stands for the midpoint of the dose-response relation. With `CCOC[C@H]1CN(c2ccc(OCC[C@@H](O)C(F)(F)F)cc2)C(=O)O1` [MD230197], the ED50 was 2.4 mg/kg.

With `COCC1CN(c2ccc(OCCC(O)C(F)(F)F)cc2)C(=O)O1` (racemic) [MD370167, 3-[4-(4,4,4-trifluoro-3-hydroxybutoxy)phenyl]-5-methoxymethyl-2-oxazolidinone], the ED50 is 1.1 mg/kg.

For `COC[C@H]1CN(c2ccc(OCC3CCCC3O)cc2)C(=O)O1` (stereo partly drawn) [MD230201, 3-[4-(1-hydroxy-2-cyclopentylmethoxy)phenyl]-5(R)-methoxymethyl-2-oxazolidinone], the ED50 came to 1.6 mg/kg.

`COC[C@H]1CN(c2ccc(CCC[C@@H](C)O)cc2)C(=O)O1` [MD230238, 3-[4-(4(R)-hydroxypentyl)phenyl]-5(R)-methoxymethyl-2-oxazolidinone]: the ED50 was 1.9 mg/kg.

Consider `COC[C@H]1CN(c2ccc(OCC[C@H](O)C(F)(F)F)cc2)C(=O)O1` [MD370504, 3-[4-(4,4,4-trifluoro-3(S)-hydroxybutoxy)phenyl]-5(R)-methoxymethyl-2-oxazolidinone], for which the 50% effective dose (ED50) came out at 1.8 mg/kg.

For `COCC1CN(c2ccc(OCCC(C)O)cc2)C(=O)O1` (racemic) [MD370047, 3-[4-(3-hydroxybutoxy)phenyl]-5-methoxymethyl-2-oxazolidinone], the ED50 stood at 1.9 mg/kg.

As to `COC[C@H]1CN(c2ccc(OCC[C@@H](O)C(F)(F)F)cc2)C(=O)O1` [MD370503, 3-[4-(4,4,4-trifluoro-3(R)-hydroxybutoxy)phenyl]-5(R)-methoxymethyl-2-oxazolidinone], the ED50 was 0.14 mg/kg.

With `COC[C@H]1CN(c2ccc(OCC[C@@H](C)O)cc2)C(=O)O1` [MD370120, 3-[4-(3(R)-hydroxybutoxy)phenyl]-5(R)-methoxymethyl-2-oxazolidinone], the ED50 stood at 0.83 mg/kg.

With `Cc1cccc(N2CC(CO)OC2=O)c1` (stereo not shown) [TOLOXATONE, reference compound], the ED50 stood at 30 mg/kg.

For `COC[C@H]1CN(c2ccc(OCC[C@H](C)O)cc2)C(=O)O1` [MD370122, 3-[4-(3(S)-hydroxybutoxy)phenyl]-5(R)-methoxymethyl-2-oxazolidinone], the ED50 is 0.68 mg/kg.

Turning to `COC[C@H]1CN(c2ccc(CCCC(C)O)cc2)C(=O)O1` (stereo partly drawn) [MD230082, 3-[4-(4-hydroxypentyl)phenyl]-5(R)-methoxymethyl-2-oxazolidinone], the ED50 was 1.1 mg/kg.

Tested on in the next series: not listed separately
As to the kind of experiment: acute toxicity in mouse. Particulars: in vivo, po, method of Litchfield and Wilcoxon.
Usually LD50 stands for the dose expected to kill half of the subjects tested. A lower LD50 goes with a more toxic substance. The compound `COC[C@H]1CN(c2ccc(OCC[C@@H](O)C(F)(F)F)cc2)C(=O)O1` [MD370503, 3-[4-(4,4,4-trifluoro-3(R)-hydroxybutoxy)phenyl]-5(R)-methoxymethyl-2-oxazolidinone] came in with an LD50 of 2500 mg/kg.

In turn, `COC[C@H]1CN(c2ccc(OCC[C@@H](C)O)cc2)C(=O)O1` [MD370120, 3-[4-(3(R)-hydroxybutoxy)phenyl]-5(R)-methoxymethyl-2-oxazolidinone] showed an LD50 of 1400 mg/kg.
